Laboratory results as given in patent publication US20200223837A1, “BENZOFURAN AMIDES AND HETEROAROMATIC ANALOGUES THEREOF FOR USE IN THERAPY” (European Molecular Biology Laboratory, priority 2017, published 2020).

Tested on: EGR1 promoter
Assay: EGR1 reporter assay (luciferase) in genomically engineered HeLa cell line
Type: cell-based
Conditions: Homo sapiens; EGR1 reporter HeLa cells, luciferase activity after 24 hours with compound
Description: The compounds of the present invention can be characterized for their effect on expression of egr1 (early growth response protein 1) using an EGR1 reporter cell line.
The HeLa cell line was genetically modified to provide a simple, robust and highly reproducible cell-based assay reporting the activity of an endogenous EGR1 promoter. In brief, a construct encoding EGFP and luciferase proteins, separated by a self-cleaving P2A peptide was inserted, using CRISPR, immediately downstream (3′) to the promoter of endogenous EGR1. Upon treatment with compounds, cells express EGFP and luciferase from EGR1 promoter, which can be readily detected either in live cells using microscopy or cytometry, or through detection of luciferase activity in cell lysates.
To achieve stable genomic integration of an EGR1-promoter dual reporter, two plasmids were generated: one contained the reporter construct (eGFP-P2A-luciferase) flanked by homology arms that direct insertion into genomic DNA, by homologous recombination, of a break in genomic DNA generated by guide RNA targeted cleavage by Cas9 endonuclease. The gRNA expressing plasmid was based on px330 (56), into which a gRNA sequence that targets a break in gDNA close to the start codon of EGR1 was cloned. The left homology arm (encoding part of EGR1 promoter adjacent to its start codon) and right homology arm (encoding […] of start codon of EGR1) were cloned from gDNA using the following primers: […]
The present compounds can be tested, e.g. by using a HeLa cell line carrying an EGR1 reporter construct which allows for expression of luciferase and eGFP (enhanced GFP) controlled by the EGR1 promoter. For this reporter cells are seeded in the wells of a 384 well microtiter plate at a density of 2000 cells per well in 48 μl of DMEM supplemented with 4.5 g/l glucose, 2 mM glutamine and 10% FCS and are incubated for 24 hours at 37° C. with 5% CO2 and 95% humidity. Then, an eleven point 1:3 serial dilution of each test compound, from an initial concentration of 100 μM, is prepared in DMSO and the dilutions are added to the cells in a volume of 2 μl per well. The cells are incubated for a further 24 hours, after which the luciferase activity of each well is determined by addition of 25 μl of luciferase substrate reaction mixture (Britelite™ plus, Perkin Elmer) and measuring the bioluminescence light output (EnVision Xcite plate reader, PerkinElmer).
The compound of example 64 served as a positive control for this EGR1 reporter assay. The compound of example 64 had been identified in an initial high throughput screening campaign.

Row | EC50 [µM] | Structure (SMILES)
1 | 0.01 to 10 | CCc1ccc2c(CC(=O)Nc3ncc(C)s3)coc2c1 [Example 40, 2-(6-Ethylbenzofuran-3-yl)-N-(5-methylthiazol-2-yl)acetamide]
2 | 0.01 to 10 | COc1ccc2nc(NC(=O)Cc3coc4cc(C)ccc34)sc2c1 [Example 41, N-(6-Methoxy-1,3-benzothiazol-2-yl)-2-(6-methylbenzofuran-3-yl)acetamide]
3 | 0.01 to 10 | Cc1ccc2c(CC(=O)Nc3nccs3)coc2c1 [Example 42, 2-(6-Methylbenzofuran-3-yl)-N-thiazol-2-yl-acetamide]
4 | 0.01 to 10 | COc1ccc2c(CC(=O)Nc3ncc(C)s3)coc2c1 [Example 43, 2-(6-Methoxybenzofuran-3-yl)-N-(5-methylthiazol-2-yl)acetamide]
5 | 0.01 to 10 | O=C(CCc1coc2ccccc12)Nc1ncc(C(F)(F)F)s1 [Example 44, 3-(Benzofuran-3-yl)-N-[5-(trifluoromethyl)thiazol-2-yl]propanamide]
6 | 0.01 to 10 | Cc1cnc(NC(=O)Cc2coc3cc(C)c(C)cc23)s1 [Example 45, 2-(5,6-Dimethylbenzofuran-3-yl)-N-(5-methylthiazol-2-yl)acetamide]
7 | 0.01 to 10 | N#Cc1cnc(NC(=O)Cc2coc3cc(Cl)ccc23)s1 [Example 46, 2-(6-Chlorobenzofuran-3-yl)-N-(5-cyanothiazol-2-yl)acetamide]
8 | 0.01 to 10 | COC(=O)c1cnc(NC(=O)Cc2coc3c(C)c(C)ccc23)s1 [Example 47, Methyl 2-[[2-(6,7-dimethylbenzofuran-3-yl)acetyl]amino]thiazole-5-carboxylate]
9 | 0.01 to 10 | Cc1ccc2c(CC(=O)Nc3ncc(C)s3)coc2c1 [Example 48, 2-(6-Methylbenzofuran-3-yl)-N-(5-methylthiazol-2-yl)acetamide]
10 | 0.01 to 10 | O=C(Cc1coc2c(Cl)c(Cl)ccc12)Nc1ncc(C(F)(F)F)[nH]1 [Example 49, 2-(6,7-Dichlorobenzofuran-3-yl)-N-[5-(trifluoromethyl)-1H-imidazol-2-yl]acetamide]
11 | 0.01 to 10 | COc1ccc(-c2csc(NC(=O)Cc3coc4cc(C)ccc34)n2)cc1OC [Example 50, N-[4-(3,4-Dimethoxyphenyl)thiazol-2-yl]-2-(6-methylbenzofuran-3-yl)acetamide]
12 | 0.01 to 10 | COc1ccc2c(CC(=O)Nc3nc(-c4ccc(CCC(C)NC(C)=O)cc4)cs3)coc2c1 (stereo not shown) [Example 51, N-[4-[4-(3-Acetamidobutyl)phenyl]thiazol-2-yl]-2-(6-methoxybenzofuran-3-yl)acetamide]
13 | 0.01 to 10 | CCc1ccc2c(CC(=O)Nc3nc(-c4ccc(NC(C)=O)cc4)cs3)coc2c1 [Example 52, N-[4-(4-Acetamidophenyl)thiazol-2-yl]-2-(6-ethylbenzofuran-3-yl)acetamide]
14 | 0.01 to 10 | O=C(Cc1coc2c(Cl)cccc12)Nc1ncc(C(F)(F)F)s1 [Example 53, 2-(7-Chlorobenzofuran-3-yl)-N-[5-(trifluoromethyl)thiazol-2-yl]acetamide]
15 | 0.01 to 10 | COc1ccc2c(CC(=O)Nc3nc4c(s3)CCC4)coc2c1 [Example 54, N-(5,6-Dihydro-4H-cyclopenta[d]thiazol-2-yl)-2-(6-methoxybenzofuran-3-yl)acetamide]
16 | 0.01 to 10 | Cc1ccc2c(CC(=O)Nc3ncc(C(F)(F)F)[nH]3)coc2c1C [Example 55, 2-(6,7-Dimethylbenzofuran-3-yl)-N-[5-(trifluoromethyl)-1H-imidazol-2-yl]acetamide]
17 | 0.01 to 10 | COCc1cnc(NC(=O)Cc2coc3cc(Cl)ccc23)s1 [Example 56]
18 | 0.01 to 10 | Cc1cnc(NC(=O)Cc2coc3c(Cl)c(C)ccc23)[nH]1 [Example 57, 2-(7-Chloro-6-methyl-benzofuran-3-yl)-N-(5-methyl-1H-imidazol-2-yl)acetamide]
19 | 0.01 to 10 | Cc1ccc2c(CC(=O)Nc3ncc(C(F)(F)F)[nH]3)coc2c1Cl [Example 58, 2-(7-Chloro-6-methyl-benzofuran-3-yl)-N-[5-(trifluoromethyl)-1H-imidazol-2-yl]acetamide]
